One assay deals with H3K4me3 in MV4-11 cells. As to the kind of experiment: MV4-11 H3K4Me3 cellular ELISA assay. As to conditions: Homo sapiens, 48 hours, H3K4me3 signal normalized to total H3. It counts as cell-based. As for the experimental part:
MV4-11H3K4Me3 Cellular ELISA Assay
MV4-11 (ATCC® CRL-9591™) was cultured with RPMI1640 medium (Thermo Fisher Scientific, cat #11875) supplemented with 10% FBS (Thermo Fisher Scientific, cat #10099141) and 50 U/ml Penicillin-Streptomycin (Thermo Fisher Scientific, cat #10378016) in humidified incubator at 37° C., 5% CO2.
200 nL compounds dissolved in DMSO were serially diluted at 1:3 ratio for 12 points starting from 10 mM and dispensed into each wells of cell culture plates (PDL-coated ViewPlate-384 Black, FTC, PerkinElmer, #6007710). 3,750 MV4-11 cells in 40 μL culture medium were seeded into each well and treated with desired concentration for 48 hours. After treatment, wash cells with cold phosphate based buffer (PBS, pH 7.4) and aspirate the remaining PBS buffer. Crude histone lysate was extracted by 40 μL 0.5M HCl for 1 hour in 4° C. following neutralization by adding 32 μL neutralization buffer (0.5M Sodium phosphate dibasic, pH˜12.5, 1.25 mM Dithiothreitol, Promega #V3151, Protease Inhibitor Cocktail, Sigma #8340) for each well. 5 μL and 20 μL of histone lysate was loaded to ELISA plate (384 Well Plates, PE HB, White, 6005620) for detection of total H3 and H3K4me3, respectively. Shake the plates gently in 4° C. for overnight. After histone binding, plates were washed with 80 μL PBS/T (PBS with 0.05% Tween-20) and blocked with 50 μL 3% BSA diluted in PBS/T per well for 1 hour. Incubate wells with primary antibody for 1 hour at room temperature using anti-H3K4me3 (CST #9727) and anti-total H3 (CST #9715) diluted 1:2000 in 3% BSA. Plates were then washed with PBS/T for 3 times and incubated with horseradish peroxidase (HRP) conjugated secondary antibody (CST #7074, 1:5000) for 1 hour at room temperature. The abundance of H3K4me3 and total H3 were measured by ECL substrates chemiluminesce (Pierce, #34080) on a plate reader (PerkinElmer EnVison 2104 Mutilable Reader). Percentage inhibition was calculated against DMSO control after normalization of H3K4me3 signal to H3 signal for individual samples. The data were then fit to a dose response curve using GraphPad Prism for IC50 calculation.

Assay [1] has as its target wild type MLL1 four-member complex (MLL1-4C) (Homo sapiens, UniProt Q03164). As to the kind of experiment: MLL1 LC-MS assay. The conditions noted are these: 30 nM MLL1-4C, 2.5 μM SAM, 10 μM H3K4me0; SAH production by LC-MS/MS; read-out: MLL1 LCMS. The assay is classed as biochemical. As to the method: The compounds of the present disclosure were serially and separately diluted 3-fold in DMSO to obtain a total of eight or twelve concentrations. Then the test compounds at each concentration (120 nL of each) were transferred by Mosquito into white Proxiplate plus 384-well microplate (PerkinElmer). Solutions (6 μL) of 60 nM wild type MLL1 four-member complex (MLL1-4C) and 5 μM SAM in the reaction buffer (20 mM Tris-HCl, pH8.0, 0.01% Tween 20, 1 mM DTT, 10 mM MgCl2, 0.01% BSA) were added to the wells that were then incubated with the test compound for 20 min. A 6 μL solution of 20 μM of the peptide substrate H3K4me0 (histone H3[1-21]-Biotin) in the reaction buffer was added to initiate each reaction. The final components in the reaction solution include 30 nM MLL1-4C, 2.5 μM SAM, and 10 μM H3K4me0 with varying concentration of the compounds. A positive control consisted of 30 nM MLL1-4C, 2.5 μM SAM, and 10 μM substrate in the absence of the test compound, and a negative control consisted of 2.5 μM SAM, and 10 μM substrate only. Each reaction was incubated at rt for 120 min, then stopped by addition of 3 μL per of quench solution (2.5% TFA with 320 nM d4-SAH). The reaction mixture was centrifuged (Eppendorf centrifuge 5810, Rotor A-4-62) for 2 min at 2000 rmp. The SAH production from the enzymatic assays were monitored by LC-MS/MS on an API 4000 triple quadrupole mass spec with TurboIon Spray (Applied Biosystem) coupled with Prominenece UFLC(Shimazu). The level of SAH production were then normalized based on the values coming from the positive and negative controls to give percent enzyme activities. The data were then fit to a dose response equation using the program Helios (Novartis) to get the IC50 values of the test compounds.

Assay [2] deals with wild type MLL1 five-member complex (MLL1-5C) (Homo sapiens, UniProt Q03164). In words: MLL1 Flashplate assay. It counts as biochemical. As to conditions: 2.5 nM MLL1-5C, 0.5 μM 3H-SAM, 1 μM H3K4me0; read-out: MLL1 flash plate. As for the experimental part:
MLL1 Flashplate Assay To assess the compound potency in MLL1 Flashplate assay, compounds were serially diluted 3-fold in DMSO to obtain a total of twelve concentrations. Then the test compounds at each concentration (250 nL of each) were transferred by Mosquito into Corning #3675 384-well plate. Solutions (15 μL) of 4.2 nM wild type MLL1 five-member complex (MLL1-5C) in the assay buffer (20 mM Tris-HCl, pH8.0, 0.01% Tween 20, 1 mM DTT, 0.01% BSA) were added to the wells. A 10 μL solution of 2.5 μM of the peptide substrate H3K4me0 (histone H3[1-21]-Biotin) and 1.25 μM ^3H-SAM in the reaction buffer was then added to initiate each reaction. The final components in the reaction solution include 2.5 nM MLL1-5C, 0.5 μM ^3H-SAM, and 1 μM H3K4me0 with varying concentration of the compounds. A positive control consisted of 2.5 nM MLL1-5C, 0.5 μM ^3H-SAM, and 1 μM substrate in the absence of the test compound, and a negative control consisted of 0.5 μM ^3H-SAM, and 1 μM substrate only. Each reaction was incubated at rt for 90 min, then stopped by addition of 5 μL per of quench solution (0.5 mM SAM in assay buffer). 25 μL of each reaction solution was transferred to FlashPlate streptavidin 384-well microplate (PerkinElmer). After at least 1 h incubation at rt, the wells were washed three times with 0.1% Tween-20 in dH2O using the BioTek plate washer. The plates were then read in MicroBeta (PerkinElmer). The radioactive readouts were then normalized based on the values coming from the positive and negative controls to give percent enzyme activities. The data were then fit to a dose response equation using the program Helios to get the IC50 values of the test compounds.

Another assay deals with MV4-11 cells. In words: MV4-11 6-day cell growth CTG (CellTiter-Glo) assay. The assay is classed as cell-based. The conditions noted are these: Homo sapiens, 144 h, 6 days. As for the experimental part: MV4-11 6-Day Cell Growth CTG (CellTiter-Glo) Assay
Acute myeloid leukemia cell MV4-11 (ATCC® CRL-9591™) was cultured with RPMI 1640 medium (Thermo Fisher Scientific, cat #11875) supplemented with 10% FBS (Thermo Fisher Scientific, cat #10099141) in humidified incubator at 37° C., 5% CO2. To assess the effect of MLL1 inhibition on cell growth, the compound of the present invention was dissolved in DMSO and serially diluted at 1:3 for 12 points starting from 10 mM then 200 nL for the replicate of each dose per well was dispensed to Viewplate-384 Black (Perkin Elmer). Exponentially growing MV4-11 cells were seeded at the density of 300 cells per well in 40 μL to the plate, so the final compound working concentration starts from 50 μM. After 6 days, 40 μL CellTiter-Glo (Promega, cat #G7573) was added into the cell culture well and luminescence was read with Envision (Perkin Elmer) to determine the viable cells. The percentage inhibition was calculated against the samples treated with DMSO only and the data were used for dose response curve fitting in GraphPad Prism to get the IC50 of representative compound of present invention, which reflects the inhibition of MLL1 activity.

On to `COC[C@H](N)CCCOc1ccc(Cl)c(Cl)c1Cn1cnc2c(N)ncnc21` [Example 1, (R)-9-(6-((4-amino-5-methoxypentyl)oxy)-2,3-dichlorobenzyl)-9H-purin-6-amine], for which the IC50 in the assay on H3K4me3 in MV4-11 cells was over 3000 nM; in assay [1], under 50 nM; in assay [2] it was under 60 nM; in the assay on MV4-11 cells, 2000 to 3000 nM.

Turning to `COC[C@H](N)COc1ccc2ccccc2c1Cn1cnc2c(N)ncnc21` [Example 19, (S)-9-((2-(2-amino-3-methoxypropoxy)naphthalen-1-yl)methyl)-9H-purin-6-amine], the values for the IC50 (in the assay with H3K4me3 in MV4-11 cells; in assay [1]; with MV4-11 cells) were 1900 to 3000 nM, 50 to 100 nM and under 2000 nM, respectively.

As for `COC[C@H](N)CCCOc1ccc2cc(Br)ccc2c1Cn1cnc2c(N)ncnc21` [Example 20, (R)-9-((2-((4-amino-5-methoxypentyl)oxy)-6-bromonaphthalen-1-yl)methyl)-9H-purin-6-amine], the IC50 in the assay on H3K4me3 in MV4-11 cells was over 3000 nM; in assay [1] it was 50 to 100 nM; in assay [2], under 60 nM; in the assay on MV4-11 cells, over 3000 nM.

In the case of `Nc1ncnc2c1ncn2Cc1c(OCCC[C@@H](N)C(=O)O)ccc(Cl)c1Cl` [Example 23, (R)-2-amino-5-(2-((6-amino-9H-purin-9-yl)methyl)-3,4-dichlorophenoxy)pentanoic acid], the IC50 in the assay on H3K4me3 in MV4-11 cells is under 1900 nM; in assay [1], under 50 nM; in assay [2] it was under 60 nM; in the assay on MV4-11 cells, 2000 to 3000 nM.

In the case of `CCOC(=O)[C@H](N)CCCOc1ccc(Cl)c(Cl)c1Cn1cnc2c(N)ncnc21` [Example 29, Ethyl (R)-2-amino-5-(2-((6-amino-9H-purin-9-yl)methyl)-3,4-dichlorophenoxy)pentanoate], the IC50 is under 1900 nM in the assay with H3K4me3 in MV4-11 cells, under 50 nM in assay [1], under 60 nM in assay [2] and under 2000 nM in the assay on MV4-11 cells.

For the compound `CCOC(=O)[C@H](N)CCC(C)Oc1ccc(Cl)c(Cl)c1Cn1cnc2c(N)ncnc21` (stereo partly drawn) [Example 30, Ethyl (2R)-2-amino-5-(2-((6-amino-9H-purin-9-yl)methyl)-3,4-dichlorophenoxy)hexanoate], the IC50 in the assay on H3K4me3 in MV4-11 cells is 1900 to 3000 nM; in assay [1], 50 to 100 nM; with MV4-11 cells, under 2000 nM.

On to `COC(=O)[C@H](N)CCCOc1ccc(Cl)c(Cl)c1Cc1cnc2c(N)ncnn12` [Example 34, Methyl (R)-2-amino-5-(2-((4-aminoimidazo[2,1-f][1,2,4]triazin-7-yl)methyl)-3,4-dichlorophenoxy)pentanoate], for which the IC50 was under 1900 nM in the assay on H3K4me3 in MV4-11 cells, 50 to 100 nM in assay [1] and under 2000 nM with MV4-11 cells.

On to `NC(=O)[C@H](N)CCCOc1ccc(Cl)c(Cl)c1Cn1cnc2c(N)ncnc21` [Example 39, (R)-2-amino-5-(2-((6-amino-9H-purin-9-yl)methyl)-3,4-dichlorophenoxy)pentanamide], for which the IC50 in assay [1] is 50 to 100 nM; with MV4-11 cells it was under 2000 nM.

On to `COCCNC(=O)[C@H](N)CCCOc1ccc(Cl)c(Cl)c1Cn1cnc2c(N)ncnc21` [Example 41, (R)-2-amino-5-(2-((6-amino-9H-purin-9-yl)methyl)-3,4-dichlorophenoxy)-N-(2-methoxyethyl) pentanamide], for which the IC50 with H3K4me3 in MV4-11 cells was under 1900 nM; in assay [1] it was 50 to 100 nM; with MV4-11 cells, under 2000 nM.

Consider `Nc1ncnc2c1ncn2Cc1c(OCCC[C@@H](N)CO)ccc(Cl)c1Cl` [Example 45, (R)-2-amino-5-(2-((6-amino-9H-purin-9-yl)methyl)-3,4-dichlorophenoxy)pentan-1-ol], for which the IC50 in assay [1] lay within 50 to 100 nM; in assay [2], 60 to 100 nM; in the assay on MV4-11 cells, 2000 to 3000 nM.

Turning to `COCCOC[C@H](N)CCCOc1ccc(Cl)c(Cl)c1Cn1cnc2c(N)ncnc21` [Example 47, (R)-9-(6-((4-amino-5-(2-methoxyethoxy)pentyl)oxy)-2,3-dichlorobenzyl)-9H-purin-6-amine], the IC50 in assay [1] is over 100 nM; in assay [2], over 100 nM; with MV4-11 cells it was over 3000 nM.

Consider `Nc1ncnc2c1ncn2Cc1c(OCCC[C@@H](N)Cn2cccn2)ccc(Cl)c1Cl` [Example 49, (R)-9-(6-((4-amino-5-(1H-pyrazol-1-yl)pentyl)oxy)-2,3-dichlorobenzyl)-9H-purin-6-amine], for which the IC50 is 50 to 100 nM in assay [1] and over 3000 nM with MV4-11 cells.

For `Nc1ncnc2c1ncn2Cc1c(OCCC[C@@H](N)c2nnco2)ccc(Cl)c1Cl` [Example 51, (R)-9-(6-(4-amino-4-(1,3,4-oxadiazol-2-yl)butoxy)-2,3-dichlorobenzyl)-9H-purin-6-amine], the IC50 in assay [1] is over 100 nM; in assay [2] it was 60 to 100 nM; with MV4-11 cells, over 3000 nM.

Consider `CSC[C@H](N)CCCOc1ccc(Cl)c(Cl)c1Cn1cnc2c(N)ncnc21` [Example 52, (R)-9-(6-((4-amino-5-(methylthio)pentyl)oxy)-2,3-dichlorobenzyl)-9H-purin-6-amine], for which the figures for the IC50 (in assay [1]; in assay [2]; with MV4-11 cells) were 50 to 100 nM, over 100 nM and over 3000 nM, respectively.
